Data on 5 molecules can be found in EP0807624B1, “RETINOIC ACID DERIVATIVES” (THE SALK INSTITUTE FOR BIOLOGICAL STUDIES, priority 1991, dated 1993).

The target in one test is T1, RXR-β (Mus musculus, UniProt P28704).
T1 sequence (P28704 1-520): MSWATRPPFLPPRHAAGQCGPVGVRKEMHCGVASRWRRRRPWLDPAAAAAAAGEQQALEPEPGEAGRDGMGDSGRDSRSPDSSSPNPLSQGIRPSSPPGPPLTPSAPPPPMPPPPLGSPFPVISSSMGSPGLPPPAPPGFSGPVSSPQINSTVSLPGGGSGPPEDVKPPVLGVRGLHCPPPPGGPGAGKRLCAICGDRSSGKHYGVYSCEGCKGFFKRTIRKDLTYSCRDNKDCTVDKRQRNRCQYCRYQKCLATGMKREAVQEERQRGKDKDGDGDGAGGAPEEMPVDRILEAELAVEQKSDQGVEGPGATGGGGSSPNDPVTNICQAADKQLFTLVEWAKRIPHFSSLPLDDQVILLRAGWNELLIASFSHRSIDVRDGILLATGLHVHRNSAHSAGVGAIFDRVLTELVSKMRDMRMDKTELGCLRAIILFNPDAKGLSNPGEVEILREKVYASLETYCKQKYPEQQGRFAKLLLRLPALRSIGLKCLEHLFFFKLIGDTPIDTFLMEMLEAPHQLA
As to the kind of experiment: Cotransfection assay in CV-1 cells. It counts as cell-based. The conditions noted are these: RXRβ; maximal response relative to retinoic acid at 10^-5 M.

A further test has as its system RAR-β. Put plainly: Cotransfection assay in CV-1 cells. It counts as cell-based, human. The conditions noted are these: RARβ; maximal response relative to retinoic acid at 10^-5 M.
A further test concerns the target T2, RXR-γ (Mus musculus, UniProt P28705).
T2 sequence (P28705 1-463): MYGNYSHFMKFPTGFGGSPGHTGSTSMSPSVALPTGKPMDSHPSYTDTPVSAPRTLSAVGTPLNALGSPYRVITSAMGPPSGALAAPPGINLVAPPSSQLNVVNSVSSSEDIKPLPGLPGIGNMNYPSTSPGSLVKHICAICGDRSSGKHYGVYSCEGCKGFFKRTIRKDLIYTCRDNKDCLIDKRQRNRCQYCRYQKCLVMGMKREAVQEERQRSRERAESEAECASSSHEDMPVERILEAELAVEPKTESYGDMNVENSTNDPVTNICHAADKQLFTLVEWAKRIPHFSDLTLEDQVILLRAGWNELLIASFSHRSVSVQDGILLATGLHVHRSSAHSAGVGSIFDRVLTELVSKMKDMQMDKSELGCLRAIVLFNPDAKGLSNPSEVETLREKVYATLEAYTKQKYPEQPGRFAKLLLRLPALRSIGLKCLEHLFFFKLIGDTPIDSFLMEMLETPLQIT
As to the kind of experiment: Cotransfection assay in CV-1 cells. The class given is cell-based. Particulars: RXRγ; maximal response relative to retinoic acid at 10^-5 M.

Another test relates to RAR-γ. Put plainly: Cotransfection assay in CV-1 cells. The class given is cell-based, human. The conditions noted are these: RARγ; maximal response relative to retinoic acid at 10^-5 M.
Another test deals with RAR-α. Put plainly: Cotransfection assay in CV-1 cells. The class given is cell-based, human. Particulars: RARα; maximal response relative to retinoic acid at 10^-5 M.
Test [1] deals with normal human epidermal keratinocytes (NHEK534 cell line). As to the kind of experiment: cells. Particulars: Keratinocyte, read-out: EC50 for inhibition of differentiation.
In test [2] the test system is human primary metastatic melanoma cell line c81-46c. As to the kind of experiment: In vitro proliferation of melanoma cell line. It counts as cell-based. The conditions noted are these: read-out: % Growth inhibition; for inhibition at 0.01 µM: 0.01 µM added; for inhibition at 1 µM: 1 µM added.
The test system of test [3] is murine melanoma cell line Clone M3. Put plainly: In vitro proliferation of melanoma cell line. The conditions noted are these: Mus musculus, read-out: % Growth inhibition.
For a further test, the system named is HL60 cells. Put plainly: cells. Particulars: Homo sapiens, HL-60, 144 h, read-out: EC-50 for differentiation, as determined by NBT.
The subject of a further test is HL60R cells. Put plainly: Differentiation of HL60R cells (NBT). It counts as cell-based. The conditions noted are these: concentrations up to 10 µM.
The next test has as its system RXR-α. Put plainly: Cotransfection assay in CV-1 cells. The class given is cell-based, human. The conditions noted are these: RXRα; maximal response relative to retinoic acid at 10^-5 M.

Broadly, the inhibition is the change of the read-out against control, counted positive when it falls.

Turning to `CC1=C(/C=C/C(C)=C\C=C\C(C)=C\C(=O)O)C(C)(C)CCC1O` (stereo not drawn) [4-hydroxy-9-cis-retinoic acid], the Efficacy at RXR-β is on record as 143%; in the test on RAR-β, 71%; at RXR-γ it was 115%; in the test on RAR-γ, 81%; with RAR-α, 65%.

Turning to `CC1=C(/C=C/C(C)=C\C=C\C(C)=C\C(=O)O)C(C)(C)CCC1` [9-cis-retinoic acid], the EC50 in test [1] is 0.02 ± 0.0028 µM. Also, the results for the inhibition at 0.01 µM in test [2] and in [3] were -28% and -49%, respectively. In addition, the inhibition at 1 µM in test [2] was -45%; in test [3] it was -85%.

For the molecule `CC1=C(/C=C/C(C)=C/C=C/C(C)=C/C(=O)O)C(C)(C)CCC1` [all-trans-retinoic acid], the EC50 in the test with HL60 cells worked out at 2 µM. Moreover, in the test on HL60R cells, the “differentiation (NBT) of HL60R cells” value is listed as “resistant to differentiation”. In test [1], the EC50 is 0.02 ± 0.0028 µM. In addition, in [2], the inhibition at 0.01 µM was -17% and the inhibition at 1 µM was -44%.

As for `CC1=C(/C=C/C(=C\C=C\C(C)=C\C(=O)O)c2ccccc2)C(C)(C)CCC1` [9-phenyl-9-cis-retinoic acid], the Efficacy is listed as 88% on RXR-β; 39% in the test with RAR-β; 77% at RXR-γ; 59% in the test with RAR-γ; <2% with RAR-α; 76% in the test with RXR-α.

For the molecule `CC1=C(/C=C/C(C)=C\C=C\C(C)=C\C(=O)O)C(C)(C)CCC1=O` [4-keto-9-cis-retinoic acid], the Efficacy on RXR-β was found to be 105%; at RXR-γ, 133%; with RXR-α, 104%.
